One substance from patent US20070161547A1, “Modulation of survivin expression” (priority 2003, published 2007) can be followed below.

In data set [1] the test system is human survivin mRNA. Briefly: IC50 of dsRNA for survivin mRNA, dose response by quantitative RT-PCR ("D"). The note with it: Table 16; cell line not given; read-out: IC50 (nM) mRNA, dsRNA to human survivin. Type of data set: cell-based. As for the experimental part:
Representative parameters that can be studied include, for example, translation of survivin mRNAs or survivin protein synthesis; effect on surrogate markers; or any other parameter that is indicative of potential dsRNA therapeutic effectiveness that can be conveniently measured in vitro.
For western blot analysis, cells are plated in 10 cm tissue culture dishes (Falcon, #3003) at a density of 7.5×10^5 cells/dish. For RT-PCR analysis, 96-well plates (Corning Incorporated, #3596) are plated with 1×10^4 cells/well. Lipofectin (GIBCO/Invitrogen) transfection reagent is used at a concentration of 3 ul/ml OPTIMEM reduced serum medium (Gibco/Invitrogen)/100 nM siRNA duplex. Lipofectin reagent is incubated with OPTIMEM medium for 30 minutes prior to the addition of siRNA. The desired amount of siRNA is added and mixed. Further 1:1 dilutions are performed in OPTIMEM. Cells are washed twice with 1× phosphate buffered saline and then treated with the siRNA/Lipofectin mixture in OPTIMEM. After a 4 hr incubation period, OPTIMEM medium is replaced with complete growth medium. Cells are harvested after additional 16-20 hrs for Western blot or RT-PCR analysis.
Total RNA is isolated using RNeasy® 96 kit according to recommended protocol (Qiagen). Briefly, cells are washed with 200 ul PBS after removal of growth medium. Following washing, 100 μl buffer RLT is added, plate is shaken vigorously for about 20 seconds. To each well 100 μl 70% ethanol are added and mixed by pipetting up and down three times. Samples are then applied into the wells of the RNeasy 96 plate placed in the QIAvac top base of the QIAvac 96 manifold, which is attached to a vacuum source. Vacuum is applied for 30 seconds or until transfer is complete. To each well 80 μl of DNase I incubation mix (20 mM Tris-HCl, pH 8.4, 2 mM MgCl2, 50 mM KCl and 225 Units/ml DNase I from Invitrogen) is added and incubated at room temperature for 30 minutes. Buffer RW1 (1 ml/well) is added and the vacuum is applied for 30 seconds. Buffer RPE (1 ml/well) is added to each well and vacuum is applied for 30 seconds. Washing steps with buffer RW1 and RPE1 are repeated once more. The plate is then removed from the manifold and blotted dry on paper towels. The plate is placed back in the QIAvac manifold and the vacuum is applied for 10 minutes. To elute RNA 30 μl of RNase-free water is added directly onto the membrane of each well, incubated for 1 minutes and vacuum is applied for 30 seconds. In order to maximize the recovery of total RNA the elution step is repeated with additional 30 μl/well RNase-free water.
Quantitation of survivin and GAPDH mRNA levels is determined by real-time quantitative RT-PCR using the ABI PRISM® 7900 Sequence Detection System (Applied Biosystems). RT-PCR reactions are carried out by adding 15 ul of TaqMan One Step PCR Master Mix (Applied Biosystems, #4309169) reagents (containing 100 nM each of forward primer and reverse primer, and 200 nM probe) to 96-well plates with 10 μl total RNA. For human survivin, the forward PCR primer is: 5′[…]3′ (SEQ ID NO: 186), and the reverse primer is: 5′[…]3′ (SEQ ID NO: 187). The survivin TaqMan® probe used is 5′(FAM)[…]3′ (SEQ ID NO: 188) (Biosearch Technologies, Inc.). This primer-probe set, designed to SEQ ID No 14 was used for all experiments in Examples 15 to the end. For human GAPDH, TaqMan GAPDH Control Reagent Kit is used (Applied Biosystems, #402869). The percentage inhibition for each samples are calculated by comparing the survivin/GAPDH mRNA ratio for the sample to survivin/GAPDH mRNA ratio for the untreated control. The IC50 is derived from the non-linear regression analysis of the percentage inhibition data using GraphPad Prism software (GraphPad Software).
The constructs tested comprise the antisense strand in the 5′-3′ orientation, and the sense strand in the 5′ to 3′ orientation, In Table 15, “D” is dose response (mRNA levels) and “W” is Western blot. […]

Data set [2] can be described thus: Stability of siRNA constructs in mouse plasma, capillary gel electrophoresis. In kind it is in vitro ADME. The note with it: Table 17; 25% mouse plasma, 37° C.; pseudo first-order half-life of intact siRNA duplex. How it is done: Intact duplex RNA was analyzed from diluted mouse-plasma using an extraction and capillary electrophoresis method similar to those previously described (Leeds, J. M., et al., 1996, Anal. Biochem., 235, 36-43; Geary, R. S., et al., 1999, Anal. Biochem., 274, 241-248. Heparin-treated mouse plasma, from 3-6 month old female Balb/c mice (Charles River Labs) was thawed from −80° C. and diluted to 25% (v/v) with phosphate buffered saline (140 mM NaCl, 3 mM KCl, 2 mM potassium phosphate, 10 mM sodium phosphate). Approximately 10 nmol of pre-annealed siRNA, at a concentration of 100 μM, was added to the 25% plasma and incubated at 37° C. for 0, 15, 30, 45, 60, 120, 180, 240, 360, and 420 minutes. Aliquots were removed at the indicated time, treated with EDTA to a final concentration of 2 mM, and placed on ice at 0° C. until analyzed by capillary gel electrophoresis (Beckman P/ACE MDQ-UV with eCap DNA Capillary tube). The area of the siRNA duplex peak was measured and used to calculate the percent of intact siRNA remaining. Adenosine triphosphate (ATP) was added at a concentration of 2.5 mM to each injection as an internal calibration standard. A zero time point was taken by diluting siRNA in phosphate buffered saline followed by capillary electrophoresis. Percent intact siRNA was plotted against time, allowing the calculation of a pseudo first-order half-life.

As to “ISIS 353537_343868: dsRNA duplex: antisense 353537 (4'-thio), sense 343868 (unmodified) (antisense UUUGAAAAUGUUGAUCUCC; sense GGAGAUCAACAUUUUCAAA; 4'-thio antisense, chemistry not fully specified)”, the IC50 in data set [1] came to 0.18 nM. Moreover, the “Stability (t ½ in hours)” value in data set [2] worked out at 3 h.

As a reminder, the IC50 is the concentration that inhibits the measured activity by half.
